Measurements reported in US7560229B2, “Methods of use of the enzymes of mycothiol synthesis” (priority 2002, dated 2009).
Where “and” joins values, the source holds several entries; their conditions need not be identical. Equal entries are not always repeated. Where two headings read alike, the source gives them in different places. Marks after values point to notes of the source that are not given here.

Assays:
[1] = molecular target: T1, M. tuberculosis MshC (Cys:GlcN-Ins ligase) (Mycobacterium tuberculosis, UniProt P9WJM9); format: biochemical
T1 sequence (P9WJM9 whole entry): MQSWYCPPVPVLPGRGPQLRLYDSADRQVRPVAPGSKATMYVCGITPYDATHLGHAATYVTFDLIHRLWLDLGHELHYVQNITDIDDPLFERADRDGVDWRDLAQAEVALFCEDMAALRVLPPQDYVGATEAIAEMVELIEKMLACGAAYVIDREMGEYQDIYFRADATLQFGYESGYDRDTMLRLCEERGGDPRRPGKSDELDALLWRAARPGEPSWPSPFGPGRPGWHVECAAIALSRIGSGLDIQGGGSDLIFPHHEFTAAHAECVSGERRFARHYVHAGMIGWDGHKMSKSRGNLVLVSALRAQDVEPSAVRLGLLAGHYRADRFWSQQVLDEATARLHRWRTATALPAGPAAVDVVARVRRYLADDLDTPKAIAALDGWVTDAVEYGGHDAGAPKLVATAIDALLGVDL

[2] = molecular target: T1, M. tuberculosis MshC (Cys:GlcN-Ins ligase); settings: for activity as alternative substrate to Cys: 80 μM to 1.6 mM
[3] = tested on: N[C@@H](CS)C(=O)O; assay: purified protein, by the assay type; settings: 37.0 °C
[4] = molecular target: T1, M. tuberculosis MshC (Cys:GlcN-Ins ligase); format: biochemical; settings: 2, 10, 50 or 100 μM zinc chloride, FIG. 16
[5] = molecular target: T1, M. tuberculosis MshC (Cys:GlcN-Ins ligase); format: biochemical; settings: 0.1-5 mM, FIG. 16
[6] = tested on: M. smegmatis MSH deficient mutants (Tn1, Tn2, I64); format: cell-based

| Compound | inhibition of ligase activity [1] | relative spec. act. [2] | activity as alternative substrate to Cys [2] | further results |
| --- | --- | --- | --- | --- |
| CC[C@H](N)C(=O)O [L-α-aminobutyric acid] | Only very minor inhibition | – | – | – |
| N[C@@H](CS)C(=O)O [Cys, L-cysteine] | – | (100)^c | – | Specific activity [2]: ^cSpecific activity 108 nmol min^−1 mg^−1.; apparent Vmax (L-Cys varied) [2]: 1450 ± 200 nmol/min/mg |
| C[C@H](N)C(=O)O [L-alanine] | Only very minor inhibition | ≦0.016 | Nor was significant activity detected | – |
| M. tuberculosis MshC (Cys:GlcN-Ins ligase) (Mycobacterium tuberculosis H37Rv) | – | – | – | Km [3]: 70 ± 15 µM and 85 ± 20 µM |
| N[C@@H](CS)C(=O)N[C@H]1[C@@H](OC2[C@H](O)[C@H](O)C(O)[C@H](O)[C@H]2O)O[C@H](CO)[C@@H](O)[C@@H]1O (stereo partly drawn) [Cys-GlcN-Ins, 1D-myo-inosityl 2-L-cysteinylamido-2-deoxy-α-D-glucopyranoside] | – | – | – | inhibition [1]: < 1.0% |
| O=C(O)CCS [β-mercaptopropionate, β-mercaptopropionic acid] | minor inhibition | ≦0.004 | Neither β-mercaptopropionic acid nor cysteamine, derived from Cys by removal of the amino and carboxyl groups, respectively, produced evidence of reaction | – |
| [Cl-].[Cl-].[Zn+2] [Zn^2+, zinc chloride] | – | – | – | effect of supplementation on enzyme activity [4]: loss in activity |
| Nc1ncnc2c1ncn2[C@@H]1O[C@H](COP(=O)(O)OP(=O)(O)OP(=O)(O)O)[C@@H](O)[C@H]1O [ATP] | – | – | – | decline of reaction rate [2]: 2.2 fold |
| c1cnc2c(c1)ccc1cccnc12 [1,10-phenanthroline] | – | – | – | effect of metal chelation on enzyme activity [5]: no significant loss of activity |
| N[C@@H](CO)C(=O)O [L-serine] | Only very minor inhibition | ≦0.008 | Nor was significant activity detected | – |
| N[C@@H](CCS)C(=O)O [L-homocysteine] | Only very minor inhibition | ≦0.2 | Nor was significant activity detected | – |
| CC[C@@H](CO)NCCN[C@@H](CC)CO [ethambutol] | – | – | – | difference in sensitivity between mutants [6]: no significant difference |
| N[C@H]1[C@@H](OC2[C@H](O)[C@H](O)C(O)[C@H](O)[C@H]2O)O[C@H](CO)[C@@H](O)[C@@H]1O (stereo partly drawn) [GlcN-Ins, 1D-myo-inosityl 2-amino-2-deoxy-α-D-glucopyranoside] | – | – | – | apparent Vmax (GlcN-Ins varied) [2]: 1160 ± 120 nmol/min/mg; Km ([2]; read-out: apparent Km for GlcN-Ins): 280 ± 43 µM |
| CC(=O)N[C@@H](CS)C(=O)O [AcCys, N-acetylcysteine] | minor inhibition | ≦0.24 | Nor was significant activity detected | – |
| N[C@H]1C(O)O[C@H](CO)[C@@H](O)[C@@H]1O (stereo partly drawn) [D-GlcN, D-glucosamine] | – | 1.2 | – | activity relative to GlcN-Ins [2]: ~1% |
| NCCS [cysteamine] | best inhibitor | ≦0.16 | Neither β-mercaptopropionic acid nor cysteamine, derived from Cys by removal of the amino and carboxyl groups, respectively, produced evidence of reaction | reduction in rate [1]: 3 fold |
| CC(=O)N[C@@H](CS)C(=O)N[C@H]1[C@@H](OC2[C@H](O)[C@H](O)C(O)[C@H](O)[C@H]2O)O[C@H](CO)[C@@H](O)[C@@H]1O (stereo partly drawn) [MSH, 1D-myo-inosityl 2-(N-acetylcysteinyl)amido-2-deoxy-α-D-glucopyranoside] | – | – | – | % inhibition [1]: 4 ± 3% and 7 ± 5%; inhibition of ligase activity ([1]; 1 and 5 mM, physiologic levels): minimal inhibition |
| N[C@H](CS)C(=O)O [D-Cys] | Only very minor inhibition | ≦0.7 | poor substrate | % inhibition [1]: 15 ± 8% |
| NC(=O)c1cnccn1 [pyrazinamide] | – | – | – | difference in sensitivity between mutants [6]: no significant difference |
